According to ChEMBL document CHEMBL1131527, “Estradiol-mimetic probes. Preparation of 17 alpha-(6-aminohexynyl)estradiol biotin, fluorescein and acridinium conjugates” (Bioorg Med Chem Lett, 1998):

test: Equilibrium dissociation constant of the compound; type: ADME

Row | SMILES | Kd [nM]
1 | Cc1ccc(S(=O)(=O)N(CCCC(=O)NCCCCC#C[C@]2(O)CC[C@H]3[C@@H]4CCc5cc(O)ccc5[C@H]4CC[C@@]32C)C(=O)c2c3ccccc3[n+](CCCS(=O)(=O)[O-])c3ccccc23)cc1 | 198
2 | C[C@]12CC[C@@H]3c4ccc(O)cc4CC[C@H]3[C@@H]1CC[C@@]2(O)C#CCCCCNC(=O)c1ccc2c(c1)C(=O)OC21c2ccc(O)cc2Oc2cc(O)ccc21 | 97.3
3 | C[C@]12CC[C@@H]3c4ccc(O)cc4CC[C@H]3[C@@H]1CC[C@@]2(O)C#CCCCCNC(=O)CCCCC1SC[C@@H]2NC(=O)N[C@H]12 (stereo partly drawn) | 141
